Calls of active or inactive are those of the source. The rule behind the calls is not given here.
What was measured:
Rattus norvegicus = species on record: Rattus norvegicus; assay: Toxicity in Rattus norvegicus (rat); format: organism-based; conditions: in vivo
Ornithine decarboxylase = target: T1, Ornithine decarboxylase (Homo sapiens, UniProt P11926); assay: Binding affinity to ODC (unknown origin)
T1 sequence (P11926 whole entry): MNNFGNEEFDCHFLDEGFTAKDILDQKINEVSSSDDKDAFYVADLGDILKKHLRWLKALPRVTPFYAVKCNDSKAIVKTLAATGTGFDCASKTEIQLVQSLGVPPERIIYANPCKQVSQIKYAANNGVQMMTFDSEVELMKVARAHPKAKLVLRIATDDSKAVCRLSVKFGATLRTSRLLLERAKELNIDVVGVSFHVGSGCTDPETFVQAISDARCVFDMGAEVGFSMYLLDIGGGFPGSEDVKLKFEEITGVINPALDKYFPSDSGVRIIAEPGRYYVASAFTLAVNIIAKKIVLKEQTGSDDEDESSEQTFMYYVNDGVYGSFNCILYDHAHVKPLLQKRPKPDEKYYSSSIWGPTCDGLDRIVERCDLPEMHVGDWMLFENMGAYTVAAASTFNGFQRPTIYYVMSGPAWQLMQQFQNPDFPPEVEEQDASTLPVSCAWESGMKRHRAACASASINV

[1] = Toxicity in ip dosed Mus musculus CD1 (mouse) assessed as mortality; format: organism-based; conditions: in vivo
[2] = target: T2, Ornithine decarboxylase (Rattus norvegicus) (UniProt P09057); assay: Inhibition of Rattus norvegicus Wistar (rat) rat liver ODC assessed as inhibition of 14CO2 release from L-[14C]ornithine
T2 sequence (whole entry): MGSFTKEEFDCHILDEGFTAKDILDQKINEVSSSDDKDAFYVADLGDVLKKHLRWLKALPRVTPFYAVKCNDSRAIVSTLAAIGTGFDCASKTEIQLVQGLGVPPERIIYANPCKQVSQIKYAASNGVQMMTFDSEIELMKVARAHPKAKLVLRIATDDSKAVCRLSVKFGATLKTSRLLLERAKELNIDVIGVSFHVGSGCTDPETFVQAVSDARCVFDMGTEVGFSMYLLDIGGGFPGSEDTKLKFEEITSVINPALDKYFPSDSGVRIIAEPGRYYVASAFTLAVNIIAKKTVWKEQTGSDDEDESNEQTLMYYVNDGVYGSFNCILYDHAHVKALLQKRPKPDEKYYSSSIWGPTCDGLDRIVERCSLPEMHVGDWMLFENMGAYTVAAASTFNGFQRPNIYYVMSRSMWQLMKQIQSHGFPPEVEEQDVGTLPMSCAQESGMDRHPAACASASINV

Row | SMILES | LD50 (Rattus norvegicus) [µg] | Kd (Ornithine decarboxylase) [µM] | LD50 [1] [mg/kg] | inhibition [2]
1 | NCCC[C@](N)(C(=O)O)C(F)F [EFLORNITHINE, (S)-] | 300 |  |  | 
2 | NCCC[C@H](N)C(=O)O [ORNITHINE] |  | 250 |  | 
3 | NCCC[C@@](N)(CF)C(=O)O |  | 75 |  | 
4 | N[C@@H](CCCNC(=O)CCl)C(=O)O |  | 2500 | 381 | Active
5 | NCCC[C@H](NN)C(=O)O [ALPHA-HYDRAZINE ORNITHINE] |  | 0.5 |  | 

— ChEMBL document CHEMBL3046145, “Computational and experimental evaluation of ornithine derivatives as ornithine decarboxylase inhibitors” (Med Chem Res, 2009)
